{"source": "patent US8519007B2", "about": "“Use certain diterpene compounds in the treatment of androgen receptor-associated diseases” (Academia Sinica, priority 2008, dated 2013)", "key": {"LNCaP cells": {"tested_on": "LNCaP cells", "test": "Cell cycle distribution by propidium iodide flow cytometry", "type": "cell-based, human", "conditions": "48 h", "method": "(§1) The cell cycle of treated cells was examined by flow cytometry after cellular staining with propidium iodide. 5×10^5 cells were seeded into 6-well multidishes with 10% FBS culture medium for 48 h. […] Cells were trypsinized thereafter, washed twice with cold PBS, and centrifuged. The pellet was suspended in cold PBS and 1 mL of 70% ethanol at 4° C. overnight, washed twice with cold PBS, and digested with RNase (100 μg/mL final concentration) and stained with propidium iodide (10 μg/mL final concentration) for 30 min and analyzed by flow cytometry (EPICS XL-MCL, Beckman Coulter, Inc., Fullerton, Calif.)."}, "22Rv1 cells": {"tested_on": "22Rv1 cells", "test": "Cell cycle distribution by propidium iodide flow cytometry", "type": "cell-based, human", "conditions": "48 h", "method": "as §1"}, "PC-3 cells": {"tested_on": "PC-3 cells", "test": "Cell cycle distribution by propidium iodide flow cytometry", "type": "cell-based, human", "conditions": "48 h", "method": "as §1"}, "androgen receptor": {"biological_target": "T1, androgen receptor (Homo sapiens, UniProt P10275)", "T1 sequence (P10275 with tags, fused parts or gaps DUP590-628/H875Y)": "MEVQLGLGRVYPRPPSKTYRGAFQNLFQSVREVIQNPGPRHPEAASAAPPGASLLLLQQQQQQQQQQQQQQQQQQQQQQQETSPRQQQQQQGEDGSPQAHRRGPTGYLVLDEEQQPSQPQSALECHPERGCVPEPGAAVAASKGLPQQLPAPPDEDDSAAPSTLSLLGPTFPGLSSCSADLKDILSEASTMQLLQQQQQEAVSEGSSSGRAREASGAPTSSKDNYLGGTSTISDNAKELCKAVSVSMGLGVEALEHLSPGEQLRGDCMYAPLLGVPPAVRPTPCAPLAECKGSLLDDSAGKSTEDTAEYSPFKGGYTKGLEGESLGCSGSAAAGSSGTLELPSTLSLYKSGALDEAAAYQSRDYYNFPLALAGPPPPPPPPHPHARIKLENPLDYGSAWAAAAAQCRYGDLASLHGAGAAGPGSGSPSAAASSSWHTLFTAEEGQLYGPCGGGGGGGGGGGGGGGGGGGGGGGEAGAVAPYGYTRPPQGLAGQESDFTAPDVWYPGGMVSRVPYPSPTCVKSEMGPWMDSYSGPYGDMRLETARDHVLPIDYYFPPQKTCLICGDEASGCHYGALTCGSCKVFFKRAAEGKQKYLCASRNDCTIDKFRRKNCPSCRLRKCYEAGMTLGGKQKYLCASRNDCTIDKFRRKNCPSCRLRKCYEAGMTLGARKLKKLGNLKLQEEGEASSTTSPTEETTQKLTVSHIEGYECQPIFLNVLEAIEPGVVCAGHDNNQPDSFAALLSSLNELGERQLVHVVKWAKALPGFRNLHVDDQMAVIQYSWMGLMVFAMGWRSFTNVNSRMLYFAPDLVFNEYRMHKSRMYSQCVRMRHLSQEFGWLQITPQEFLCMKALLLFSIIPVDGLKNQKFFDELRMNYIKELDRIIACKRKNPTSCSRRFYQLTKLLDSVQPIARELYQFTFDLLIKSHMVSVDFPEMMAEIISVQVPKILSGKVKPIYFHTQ", "test": "PSA promoter luciferase reporter assay in 103E cells (AR transcriptional activity)", "conditions": "for inhibition of AR activity: 50 μM, 20 h; for pIC50: read-out: IC50 of AR activity, 20 h, luciferase", "method": "PC-3 and NIH-3T3 were cultured in DMEM (Hyclone) supplemented with 10% FBS. Cultures were maintained in a humidified incubator at 37° C. in 5% CO2/air.\nCells were treated with various compounds for a period of 20 h and luciferase activity was measured using a luciferase reporter gene assay system (Promega)."}}, "note": "pIC50: −log10 of the molar value.", "data": [{"molecule": "CC(O)(CS(=O)(=O)c1ccc(F)cc1)C(=O)Nc1ccc(C#N)c(C(F)(F)F)c1", "note": "(centres unmarked) [CASODEX, bicalutamide, reference compound]", "values": [{"measurement": "G0-G1 phase cell population", "setting": "LNCaP cells; 1 μM", "value": "62.1 ± 3.5", "unit": "%"}, {"measurement": "G2-M phase cell population", "setting": "LNCaP cells; 1 μM", "value": "21.8 ± 2.0", "unit": "%"}, {"measurement": "S phase cell population", "setting": "LNCaP cells; 1 μM", "value": "10.1 ± 1.7", "unit": "%"}, {"measurement": "Sub-G1 phase cell population", "setting": "LNCaP cells; 1 μM", "value": "1.0 ± 0.5", "unit": "%"}, {"measurement": "G0-G1 phase cell population", "setting": "LNCaP cells; 10 μM", "value": "61.3 ± 3.4", "unit": "%"}, {"measurement": "G2-M phase cell population", "setting": "LNCaP cells; 10 μM", "value": "22.3 ± 1.7", "unit": "%"}, {"measurement": "S phase cell population", "setting": "LNCaP cells; 10 μM", "value": "10.4 ± 1.5", "unit": "%"}, {"measurement": "Sub-G1 phase cell population", "setting": "LNCaP cells; 10 μM", "value": "1.3 ± 0.8", "unit": "%"}, {"measurement": "G0-G1 phase cell population", "setting": "22Rv1 cells; 22Rv1, 1 μM", "value": "53.5 ± 2.6", "unit": "%"}, {"measurement": "G2-M phase cell population", "setting": "22Rv1 cells; 22Rv1, 1 μM", "value": "25.0 ± 1.6", "unit": "%"}, {"measurement": "S phase cell population", "setting": "22Rv1 cells; 22Rv1, 1 μM", "value": "13.5 ± 2.3", "unit": "%"}, {"measurement": "Sub-G1 phase cell population", "setting": "22Rv1 cells; 22Rv1, 1 μM", "value": "1.5 ± 1.1", "unit": "%"}, {"measurement": "G0-G1 phase cell population", "setting": "22Rv1 cells; 22Rv1, 10 μM", "value": "53.0 ± 3.2", "unit": "%"}, {"measurement": "G2-M phase cell population", "setting": "22Rv1 cells; 22Rv1, 10 μM", "value": "25.4 ± 1.0", "unit": "%"}, {"measurement": "S phase cell population", "setting": "22Rv1 cells; 22Rv1, 10 μM", "value": "12.2 ± 1.8", "unit": "%"}, {"measurement": "Sub-G1 phase cell population", "setting": "22Rv1 cells; 22Rv1, 10 μM", "value": "2.3 ± 1.8", "unit": "%"}, {"measurement": "G0-G1 phase cell population", "setting": "PC-3 cells; PC-3, 1 μM", "value": "51.1 ± 3.6", "unit": "%"}, {"measurement": "G2-M phase cell population", "setting": "PC-3 cells; PC-3, 1 μM", "value": "24.4 ± 2.5", "unit": "%"}, {"measurement": "S phase cell population", "setting": "PC-3 cells; PC-3, 1 μM", "value": "18.5 ± 2.1", "unit": "%"}, {"measurement": "Sub-G1 phase cell population", "setting": "PC-3 cells; PC-3, 1 μM", "value": "2.3 ± 1.5", "unit": "%"}, {"measurement": "G0-G1 phase cell population", "setting": "PC-3 cells; PC-3, 10 μM", "value": "51.0 ± 2.1", "unit": "%"}, {"measurement": "G2-M phase cell population", "setting": "PC-3 cells; PC-3, 10 μM", "value": "25.2 ± 2.1", "unit": "%"}, {"measurement": "S phase cell population", "setting": "PC-3 cells; PC-3, 10 μM", "value": "19.0 ± 1.3", "unit": "%"}, {"measurement": "Sub-G1 phase cell population", "setting": "PC-3 cells; PC-3, 10 μM", "value": "1.8 ± 1.4", "unit": "%"}]}, {"molecule": "COc1c(C(C)C)cc2c(c1O)[C@@]1(C)CCCC(C)(C)[C@@H]1CC2=O", "note": "[Compound 1]", "values": [{"measurement": "inhibition of AR activity", "setting": "androgen receptor", "value": "approximately 70%"}, {"measurement": "Inhibitionmax (%) of AR activity", "setting": "androgen receptor; maximal inhibition at 50 μM", "value": "77 ± 2% (50 μM)"}, {"measurement": "pIC50", "setting": "androgen receptor", "value": 5.06}]}, {"molecule": "CC(C)c1cc2c(cc1O)[C@@]1(C)CCCC(C)(C)[C@@H]1CC2=O", "note": "[Compound 3]", "values": [{"measurement": "Inhibitionmax (%) of AR activity", "setting": "androgen receptor; maximal inhibition at 25 μM", "value": "100 ± 1% (25 μM)"}, {"measurement": "pIC50", "setting": "androgen receptor", "value": 5.58}]}, {"molecule": "CC(C)c1cc2c(cc1O)[C@@]1(C)CCCC(C)(C)[C@@H]1CC2", "note": "[Compound 4]", "values": [{"measurement": "Inhibitionmax (%) of AR activity", "setting": "androgen receptor; maximal inhibition at 25 μM", "value": "100 ± 1% (25 μM)"}, {"measurement": "pIC50", "setting": "androgen receptor", "value": 4.92}]}, {"molecule": "CC(C)c1cc2c(cc1O)[C@@]1(C)CCCC(C)(C)[C@H]1OC2=O", "note": "[Compound 5]", "values": [{"measurement": "inhibition of AR activity", "setting": "androgen receptor", "value": "less than 20%"}, {"measurement": "Inhibitionmax (%) of AR activity", "setting": "androgen receptor; maximal inhibition at 50 μM", "value": "19 ± 6% (50 μM)"}]}, {"molecule": "CC(C)C1=C[C@]2(O)CC[C@H]3C(C)(C)CCC[C@]3(C)C2=CC1=O", "note": "[Compound 6]", "values": [{"measurement": "inhibition of AR activity", "setting": "androgen receptor", "value": "approximately 70%"}, {"measurement": "Inhibitionmax (%) of AR activity", "setting": "androgen receptor; maximal inhibition at 50 μM", "value": "68 ± 6% (50 μM)"}, {"measurement": "pIC50", "setting": "androgen receptor", "value": 4.75}]}, {"molecule": "CC(C)c1cc2c(cc1O)[C@@]1(C)CCCC(C)(C)[C@@H]1C(=O)C2=O", "note": "[Compound 7]", "values": [{"measurement": "Inhibitionmax (%) of AR activity", "setting": "androgen receptor; maximal inhibition at 25 μM", "value": "100 ± 1% (25 μM)"}, {"measurement": "pIC50", "setting": "androgen receptor", "value": 4.89}]}, {"molecule": "C=C1CC[C@@H]2[C@](C)(CCC[C@]2(C)C(=O)O)[C@H]1CC/C(C)=C/CO", "note": "[Compound 8, isocupressic acid]", "values": [{"measurement": "inhibition of AR activity", "setting": "androgen receptor", "value": 87, "unit": "%"}, {"measurement": "Inhibitionmax (%) of AR activity", "setting": "androgen receptor; maximal inhibition at 50 μM", "value": "87 ± 3% (50 μM)"}, {"measurement": "pIC50", "setting": "androgen receptor", "value": 4.64}]}]}
